{"source": "patent US20070244102A1", "about": "“Combination of Dermaciclane and Opoids as Analgesics” (priority 2004, published 2007)", "key": {"mice": {"tested_on": "mice", "assay": "hot plate test in mice (influence on morphine analgesia)", "type": "in vivo", "conditions": "for analgesia when given alone (in words): alone: morphine HCl 1 mg/kg sc., deramciclane 30 mg/kg ip., buspiron HCl 30 mg/kg ip.; for influence on the analgesic effect of morphine (in words): 30 mg/kg ip. with morphine HCl 1 mg/kg sc.", "method": "A modified of method of Eddy et al. (Eddy, N. B., Leimback, D., Synthetic Analgesics II. Dithienylbutenyl and Dithienylbutylamines. J. Pharmacol. Exp. Ther. 107: p. 385-393, 1953) was used. Male NMRI nice (20-25 g bodyweight) were dropped on a hot plate (56±0.5° C.) and the latency time elapsed until licking the forepaws was measured. The reaction time was tested twice before treatment. […] Mice were treated either with saline or with morphine HCl 1 mg/kg subcutaneously and at the same time either with vehicle or with deramciclane or buspirone, HCl 30 mg/kg intraperitoneally, respectively. After the treatment (15, 30, 45 and 60 min.) the reaction time was measured again. Animals were regarded as positive if they produced a 2.5-fold reaction time increase at least twice compared to their first control values. Statistical analysis was performed using the chi-square method."}, "[1]": {"conditions": "1 and 10 mg/kg after oral administration; cited from earlier work"}, "[2]": {"conditions": "single oral dose of 3 mg/kg; cited from earlier work"}, "[3]": {"conditions": "single 0.7 mg/kg oral treatment; cited from earlier work"}, "[4]": {"conditions": "10 and 30 mg/kg after oral treatment; cited from earlier work"}, "[5]": {"conditions": "in the above mentioned doses (0.7-30 mg/kg); cited from earlier work"}, "[6]": {"conditions": "Morphine HCl 1 mg/kg sc. + 0.4% methyl cellulose ip."}, "[7]": {"conditions": "Morphine HCl 1 mg/kg sc. + Saline ip."}, "[8]": {"conditions": "Saline sc. + Buspiron HCl 30 mg/kg ip."}}, "note": "Entries after “also recorded” stand apart in the source; their conditions may differ. Where a name gives a salt, the structure may show the parent alone."}
{"compound": "CN1CC[C@]23c4c5ccc(O)c4O[C@H]2[C@@H](O)C=C[C@H]3[C@H]1C5.Cl", "note": "[Morphine HCl, morphine HCl]", "values": [{"measurement": "Effect %", "setting": "mice; [6]", "result": 0, "unit": "%"}, {"measurement": "Positive/treated animals", "setting": "mice; [6]", "result": "0/10"}, {"measurement": "Effect %", "setting": "mice; [7]", "result": 0, "unit": "%"}, {"measurement": "Positive/treated animals", "setting": "mice; [7]", "result": "0/10"}, {"measurement": "analgesia when given alone (in words)", "setting": "mice", "result": "Neither morphine HCl 1 mg/kg sc. nor deramciclane 30 mg/kg ip. nor buspiron HCl 30 mg/kg ip. alone produced analgesia"}]}
{"compound": "O=C1CC2(CCCC2)CC(=O)N1CCCCN1CCN(c2ncccn2)CC1", "note": "[Buspiron HCl, buspirone, HCl]", "values": [{"measurement": "influence on the analgesic effect of morphine (in words)", "setting": "mice", "result": "did not influence the analgesic effect of morphine"}, {"measurement": "Effect %", "setting": "mice; [8]", "result": 0, "unit": "%"}, {"measurement": "Positive/treated animals", "setting": "mice; [8]", "result": "0/10"}, {"measurement": "analgesia when given alone (in words)", "setting": "mice; listed as buspiron HCl, HCl", "result": "Neither morphine HCl 1 mg/kg sc. nor deramciclane 30 mg/kg ip. nor buspiron HCl 30 mg/kg ip. alone produced analgesia"}, {"measurement": "analgesia when given alone (in words)", "setting": "mice; listed as buspiron, HCl", "result": "neither deramciclane nor buspiron possess analgesic effect in itself"}]}
{"compound": "(1R,2S,4R)-(−)-2-[N,N-(dimethylaminoethoxy)]-2-phenyl-1,7,7-trimethylbicyclo[2.2.1]heptane [Deramciclane]", "values": [{"measurement": "influence on the analgesic effect of morphine (in words)", "setting": "mice", "result": "potentiation of the analgesic effect of morphine"}, {"measurement": "Effect %", "setting": "mice; Saline sc. + Deramciclane 30 mg/kg ip.", "result": 0, "unit": "%"}, {"measurement": "Positive/treated animals", "setting": "mice; Saline sc. + Deramciclane 30 mg/kg ip., positive = 2.5-fold reaction time increase at least twice, 15-60 min", "result": "0/10"}, {"measurement": "analgesia when given alone (in words)", "setting": "mice", "result": "Neither morphine HCl 1 mg/kg sc. nor deramciclane 30 mg/kg ip. nor buspiron HCl 30 mg/kg ip. alone produced analgesia; also recorded: neither deramciclane nor buspiron possess analgesic effect in itself"}, {"measurement": "activity in Vogel punished drinking test", "setting": "[1]", "result": "active"}, {"measurement": "activity in light-dark model", "setting": "[2]", "result": "active"}, {"measurement": "time spent with social interactions", "setting": "[3]", "result": "increased the time spent with social interactions"}, {"measurement": "activity in marble burying model", "setting": "[4]", "result": "active"}, {"measurement": "analgesic activity", "setting": "[5]", "result": "did not possess analgesic activity"}]}
